Test results from the NIST ThermoML archive (doi:10.1016/j.fluid.2010.10.003).

Assays:
[1] = refractive index (Na D-line) (dimensionless); conditions: 298.15 K; 101.33 kPa; Liquid; Standard Abbe refractometry
[2] = 298.15 K, 101.33 kPa, Liquid; for viscosity: Capillary tube (Ostwald / Ubbelohde) method; for mass density: Vibrating tube method
[3] = refractive index (Na D-line) (dimensionless); xn = mol fraction of the nth substance listed; conditions: 298.15 K, 101 kPa, Liquid, Standard Abbe refractometry
[4] = xn = mol fraction of the nth substance listed; conditions: 298.15 K, 101 kPa, Liquid; for viscosity: Capillary tube (Ostwald / Ubbelohde) method; for mass density: Vibrating tube method

CCCC[n+]1ccn(C)c1.O=S(=O)([N-]S(=O)(=O)C(F)(F)F)C(F)(F)F
Conditions | mass density [kg/m3] | refractive index | viscosity [mPa·s]
[1] | – | 1.42692 | –
[2] | 1436.58 | – | 50.68

CCCC[n+]1ccn(C)c1.O=S(=O)([N-]S(=O)(=O)C(F)(F)F)C(F)(F)F + CC(C)O
Conditions | mass density, [4] [kg/m3] | refractive index, [3] | viscosity, [4] [mPa·s]
x2 = 0.0515 | 1427.23 | 1.42621 | 45.44
x2 = 0.0962 | 1418.52 | 1.42549 | 41.2
x2 = 0.1921 | 1397.79 | 1.42385 | 33.45
x2 = 0.3213 | 1363.98 | 1.42124 | 24.5
x2 = 0.3896 | 1342.5 | 1.41962 | 20.46
x2 = 0.4869 | 1306.05 | 1.41685 | 15.84
x2 = 0.5173 | 1292.91 | 1.41578 | 14.67
x2 = 0.6074 | 1247.91 | 1.4124 | 11.22
x2 = 0.6943 | 1192.86 | 1.40818 | 8.545
x2 = 0.7996 | 1102.82 | 1.40129 | 5.859
x2 = 0.8995 | 978.52 | 1.39152 | 3.898

CC(=O)OC(C)C [1-methylethyl ethanoate]
Conditions | mass density [kg/m3] | refractive index | viscosity [mPa·s]
[1] | – | 1.3748 | –
[2] | 866.21 | – | 0.481

CC(=O)OC(C)C [1-methylethyl ethanoate] + CCCC[n+]1ccn(C)c1.O=S(=O)([N-]S(=O)(=O)C(F)(F)F)C(F)(F)F
Conditions | mass density, [4] [kg/m3] | refractive index, [3] | viscosity, [4] [mPa·s]
x1 = 0.0514 | 1425.08 | 1.42609 | 44.31
x1 = 0.1096 | 1411.17 | 1.42501 | 38.56
x1 = 0.1554 | 1399.42 | 1.42412 | 33.87
x1 = 0.1972 | 1388.1 | 1.42326 | 30.34
x1 = 0.2961 | 1358.2 | 1.42092 | 22.58
x1 = 0.4241 | 1312.34 | 1.41733 | 14.46
x1 = 0.5168 | 1272.49 | 1.4142 | 10.07
x1 = 0.5998 | 1230.54 | 1.4107 | 6.918
x1 = 0.7017 | 1168.62 | 1.40538 | 4.356
x1 = 0.7981 | 1095.44 | 1.39882 | 2.363
x1 = 0.8918 | 1005.35 | 1.39016 | 1.41

CC(C)O [propan-2-ol]
Conditions | mass density [kg/m3] | refractive index | viscosity [mPa·s]
[1] | – | 1.37502 | –
[2] | 780.88 | – | 2.073
